Results on three molecules are retold here after PubChem BioAssay (NCI).

Test systems include OVCAR-4 ovarian; T-47D breast; HT29 colon; NCI-H226 lung; UO-31 renal; UACC-257 melanoma; SNB-19 CNS; M14 melanoma; A549 NSCLC; SNB-75 CNS.
Holding throughout (assay): NCI tumour cell line growth inhibition, 48 h

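Protocol summary: plate cells (96-well), add compound at 5 concentrations, incubate 48 h, interpolate endpoints linearly. GI50: concentration for 50% inhibition of growth. Definition used: TGI = concentration required for complete inhibition of growth.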 Where only a bound is given, the exact number is not on record here.

For `CC(C)(C)c1ccc(NS(=O)(=O)c2ccc3nc(NC(=O)c4cnccn4)[nH]c3c2)cc1`, the GI50 in the assay on OVCAR-4 ovarian is 5.37 µM; with T-47D breast, 4.37 µM; with HT29 colon it was 1.79 µM; in the assay on NCI-H226 lung it was 2.27 µM; in the assay with UO-31 renal it was 2.08 µM; in the assay on UACC-257 melanoma, 10.8 µM. Moreover, the GI50 is 3.31 µM in the assay on SNB-19 CNS, 2.42 µM in the assay with M14 melanoma, 2.58 µM in the assay on A549 NSCLC and 1.75 µM in the assay on SNB-75 CNS. The TGI in the assay on OVCAR-4 ovarian turned out to be 19.3 µM; in the assay with T-47D breast, 23.7 µM; in the assay with HT29 colon, 12.6 µM; in the assay with NCI-H226 lung, 8.19 µM; in the assay on UO-31 renal, 10.7 µM; with UACC-257 melanoma it was 26 µM. The TGI was determined as 18.3 µM in the assay on SNB-19 CNS, 17.6 µM with M14 melanoma, 16.5 µM with A549 NSCLC and 6.49 µM in the assay with SNB-75 CNS.
Consider `Cc1ccc(-c2cc(O)c(-c3ccc(C)cc3C)cc2O)c(C)c1`, for which the GI50 is 4.27 µM in the assay with OVCAR-4 ovarian; 5.24 µM in the assay with T-47D breast; 4.73 µM with HT29 colon; 3.11 µM in the assay on NCI-H226 lung; 4.96 µM with UO-31 renal; 5.81 µM in the assay with UACC-257 melanoma. Moreover, the GI50 is 10.9 µM in the assay on SNB-19 CNS, 6.58 µM with M14 melanoma, 3.8 µM in the assay with A549 NSCLC and 5.46 µM with SNB-75 CNS. Also, the TGI was found to be 18.5 µM in the assay on OVCAR-4 ovarian; 42.9 µM in the assay on T-47D breast; 17.1 µM in the assay on HT29 colon; 19.2 µM in the assay with NCI-H226 lung; 22.4 µM in the assay on UO-31 renal; 19.1 µM in the assay with UACC-257 melanoma. The TGI with SNB-19 CNS came to 30.9 µM; in the assay on M14 melanoma it was 19.9 µM; with A549 NSCLC it was 21.6 µM; in the assay with SNB-75 CNS, 19.7 µM.
Consider `N#CC1C=Cc2c(ccc3ccccc23)N1C(=O)c1ccccc1` (stereo not given), for which the GI50 is 1.47 µM in the assay with OVCAR-4 ovarian; 0.103 µM with T-47D breast; 0.0701 µM in the assay on HT29 colon; 1.34 µM in the assay on NCI-H226 lung; 1.01 µM in the assay with UO-31 renal; 14.7 µM with UACC-257 melanoma. Also, the GI50 in the assay on SNB-19 CNS was 0.524 µM; in the assay with M14 melanoma, 0.209 µM; in the assay with A549 NSCLC, 0.339 µM; in the assay on SNB-75 CNS, 0.226 µM. For the same molecule, the TGI with OVCAR-4 ovarian is > 100 µM; with T-47D breast, > 100 µM; in the assay on HT29 colon, 3.82 µM; with NCI-H226 lung, > 100 µM; in the assay with UO-31 renal it was > 23.6 µM; with UACC-257 melanoma it was > 100 µM. Besides, the TGI in the assay on SNB-19 CNS is > 100 µM; with M14 melanoma, > 100 µM; in the assay with A549 NSCLC, > 100 µM; in the assay with SNB-75 CNS, 63.8 µM.
